Reference: ChEMBL document CHEMBL1201862, “PubChem BioAssay data set” (2004)
Blank lines part the entries; values can stand above or below the compound they belong to. Active and inactive are the calls of the source.

Columns and labels:
[1] = enhancers of respiration in Yfh1-depleted yeast, dose response, Friedreich's ataxia, plus single-dose screen (AID 1465); type: functional;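 further: yeast depleted of Yfh1p frataxin homolog grown on glycerol needing respiration; WST-1 tetrazolium dye reduction as measure of cellular dehydrogenase metabolic activity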
[2] = HEp-2 cell cytotoxicity, dose response, cytotoxicity control for RSV inhibitor project, HTS (AID 2410); type: functional; settings: human respiratory syncytial virus
[3] = cells
[4] = biological target: T1, Oxysterols receptor LXR-beta (Homo sapiens, UniProt P55055); type: functional, cell-based
T1 sequence (P55055 whole entry): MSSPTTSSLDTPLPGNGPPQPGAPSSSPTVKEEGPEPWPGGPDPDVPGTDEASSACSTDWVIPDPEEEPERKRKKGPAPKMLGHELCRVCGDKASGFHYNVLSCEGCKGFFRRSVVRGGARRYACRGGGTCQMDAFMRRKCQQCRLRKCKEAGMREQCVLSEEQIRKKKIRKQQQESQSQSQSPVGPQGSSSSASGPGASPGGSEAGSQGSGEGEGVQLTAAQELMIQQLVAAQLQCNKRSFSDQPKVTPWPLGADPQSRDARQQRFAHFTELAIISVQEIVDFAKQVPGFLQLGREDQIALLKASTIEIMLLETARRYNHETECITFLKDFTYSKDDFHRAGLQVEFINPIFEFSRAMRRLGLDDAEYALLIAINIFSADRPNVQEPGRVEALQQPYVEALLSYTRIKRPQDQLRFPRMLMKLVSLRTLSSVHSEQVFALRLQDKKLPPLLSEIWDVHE

[5] = biological target: Large T antigen (Simian virus 40, UniProt P03070); type: functional, Betapolyomavirus macacae;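 further: Confirmatory-stage PubChem screen for compounds that inhibit SV40 T antigen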
Sequence of Large T antigen (P03070 whole entry): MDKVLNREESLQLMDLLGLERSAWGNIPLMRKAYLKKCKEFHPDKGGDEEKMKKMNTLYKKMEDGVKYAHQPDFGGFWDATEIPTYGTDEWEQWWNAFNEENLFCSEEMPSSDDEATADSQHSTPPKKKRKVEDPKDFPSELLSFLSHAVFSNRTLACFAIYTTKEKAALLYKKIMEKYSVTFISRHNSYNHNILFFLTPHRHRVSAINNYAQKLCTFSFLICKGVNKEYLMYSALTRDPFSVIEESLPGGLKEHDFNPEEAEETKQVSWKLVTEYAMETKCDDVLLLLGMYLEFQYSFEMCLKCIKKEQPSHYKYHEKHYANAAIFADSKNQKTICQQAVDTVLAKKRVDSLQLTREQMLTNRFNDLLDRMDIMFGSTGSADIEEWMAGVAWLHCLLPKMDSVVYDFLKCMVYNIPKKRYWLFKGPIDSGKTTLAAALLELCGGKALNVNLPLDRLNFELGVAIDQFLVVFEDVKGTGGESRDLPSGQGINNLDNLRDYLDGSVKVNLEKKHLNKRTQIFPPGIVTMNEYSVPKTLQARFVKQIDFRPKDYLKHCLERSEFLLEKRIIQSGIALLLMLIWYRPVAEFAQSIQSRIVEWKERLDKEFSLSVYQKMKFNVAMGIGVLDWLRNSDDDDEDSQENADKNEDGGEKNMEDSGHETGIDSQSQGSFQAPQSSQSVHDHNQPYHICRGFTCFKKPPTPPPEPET

[6] = cells; remark: listed apart in the source
[7] = biological target: T1, Oxysterols receptor LXR-beta; type: functional, cell-based; remark: listed apart in the source
[8] = system: H9c2; test: cells; type: functional, cell-based; settings: Rattus norvegicus, H9c2, Myocardium;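 further: confirmatory concentration-response retest of ultra-high-throughput screening hits for modulation of myocardial damage; cell death induced by hydrogen peroxide oxidative stress; compound pretreatment for 60 min then peroxide exposure for 2 h; potency is for protecting the cells against peroxide damage rather than for killing them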
[9] = biological target: T2, Mannose-6-phosphate isomerase (Homo sapiens, UniProt P34949); test: human PMI inhibitors, high substrate, primary screen, biochemical, fluorescence intensity, high mannose 6-phosphate (AID 1220)
T2 sequence (P34949 whole entry): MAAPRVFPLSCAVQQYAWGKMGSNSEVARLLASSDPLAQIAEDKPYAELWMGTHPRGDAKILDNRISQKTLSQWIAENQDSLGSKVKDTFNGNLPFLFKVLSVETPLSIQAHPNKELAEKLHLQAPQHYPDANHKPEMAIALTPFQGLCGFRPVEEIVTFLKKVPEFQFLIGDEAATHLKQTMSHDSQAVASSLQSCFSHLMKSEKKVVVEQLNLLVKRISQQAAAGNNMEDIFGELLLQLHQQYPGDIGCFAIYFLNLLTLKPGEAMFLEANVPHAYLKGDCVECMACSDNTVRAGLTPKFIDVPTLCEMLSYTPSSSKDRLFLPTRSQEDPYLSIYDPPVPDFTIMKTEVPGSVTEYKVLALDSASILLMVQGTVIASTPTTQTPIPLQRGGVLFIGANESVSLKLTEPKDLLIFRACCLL

[10] = biological target: T3, Rac GTPase-activating protein 1 (Homo sapiens, UniProt Q9H0H5); test: MgcRacGAP GTPase-activating activity inhibitors, confirmation, biochemical, ADP Hunter fluorescence, primary and confirmatory (AID 624330); type: functional
T3 sequence (Q9H0H5 whole entry): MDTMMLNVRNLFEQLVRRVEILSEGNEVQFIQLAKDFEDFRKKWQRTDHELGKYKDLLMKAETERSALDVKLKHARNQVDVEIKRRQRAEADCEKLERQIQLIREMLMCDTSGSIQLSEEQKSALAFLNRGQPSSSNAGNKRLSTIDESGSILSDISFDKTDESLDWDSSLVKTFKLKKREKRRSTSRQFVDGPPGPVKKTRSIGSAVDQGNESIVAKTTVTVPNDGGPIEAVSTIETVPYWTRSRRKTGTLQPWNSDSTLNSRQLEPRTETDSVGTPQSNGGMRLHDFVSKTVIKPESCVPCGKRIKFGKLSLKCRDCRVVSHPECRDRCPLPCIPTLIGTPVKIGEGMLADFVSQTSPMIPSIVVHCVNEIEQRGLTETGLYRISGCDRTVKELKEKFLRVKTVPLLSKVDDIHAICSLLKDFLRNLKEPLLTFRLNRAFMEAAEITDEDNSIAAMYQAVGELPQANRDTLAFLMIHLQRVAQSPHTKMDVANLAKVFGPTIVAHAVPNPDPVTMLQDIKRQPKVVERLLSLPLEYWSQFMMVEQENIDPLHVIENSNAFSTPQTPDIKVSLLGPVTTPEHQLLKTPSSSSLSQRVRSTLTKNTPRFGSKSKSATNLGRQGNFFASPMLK

[11] = biological target: T4, Estrogen receptor beta (Homo sapiens, UniProt Q92731); test: ERβ–SRC-3 coactivator interaction inhibitors, confirmation, orthogonal assay, biochemical, ELISA, streptavidin-HRP readout (AID 1060)
T4 sequence (Q92731 whole entry): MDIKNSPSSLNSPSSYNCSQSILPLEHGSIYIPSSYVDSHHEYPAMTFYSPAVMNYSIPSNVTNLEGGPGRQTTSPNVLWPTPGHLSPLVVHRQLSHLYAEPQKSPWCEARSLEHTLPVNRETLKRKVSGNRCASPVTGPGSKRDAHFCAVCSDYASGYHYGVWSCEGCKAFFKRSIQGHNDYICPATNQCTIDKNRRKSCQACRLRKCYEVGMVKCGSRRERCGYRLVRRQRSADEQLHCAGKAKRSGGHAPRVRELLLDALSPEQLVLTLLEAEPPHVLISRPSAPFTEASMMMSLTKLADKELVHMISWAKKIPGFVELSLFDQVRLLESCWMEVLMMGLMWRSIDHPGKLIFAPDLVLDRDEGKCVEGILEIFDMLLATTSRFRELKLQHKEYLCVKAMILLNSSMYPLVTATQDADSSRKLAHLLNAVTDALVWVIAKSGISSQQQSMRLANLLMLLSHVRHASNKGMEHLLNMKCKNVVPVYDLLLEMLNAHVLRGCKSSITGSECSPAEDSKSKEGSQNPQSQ

[12] = biological target: T4, Estrogen receptor beta
[13] = biological target: T5, Estrogen receptor (Homo sapiens, UniProt P03372);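 further: potency for inhibiting coactivator peptide recruitment to the receptor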
T5 sequence (P03372 whole entry): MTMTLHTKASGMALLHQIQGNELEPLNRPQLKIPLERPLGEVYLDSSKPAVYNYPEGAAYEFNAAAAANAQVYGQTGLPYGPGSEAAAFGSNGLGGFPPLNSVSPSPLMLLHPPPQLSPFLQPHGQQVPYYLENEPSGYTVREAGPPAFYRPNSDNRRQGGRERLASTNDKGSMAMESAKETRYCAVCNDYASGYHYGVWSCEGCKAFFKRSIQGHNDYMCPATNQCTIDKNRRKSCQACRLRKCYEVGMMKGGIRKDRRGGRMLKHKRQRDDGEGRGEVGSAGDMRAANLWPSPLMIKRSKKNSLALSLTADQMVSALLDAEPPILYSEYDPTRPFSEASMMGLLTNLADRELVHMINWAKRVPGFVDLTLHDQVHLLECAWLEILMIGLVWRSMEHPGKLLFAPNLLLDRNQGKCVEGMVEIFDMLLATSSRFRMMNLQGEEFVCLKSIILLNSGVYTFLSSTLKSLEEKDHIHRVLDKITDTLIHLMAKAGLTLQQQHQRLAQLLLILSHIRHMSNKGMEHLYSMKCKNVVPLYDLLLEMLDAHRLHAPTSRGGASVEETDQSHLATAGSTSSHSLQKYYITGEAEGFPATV

[14] = A375 melanoma cell viability loss, dose response, counter-screen for MITF inhibitor project, CellTiter-Glo luminescence, dry powder, set 4 (AID 624364); type: functional, cell-based; settings: A-375;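 further: A375 melanoma cells are MITF independent so this is a counter screen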
[15] = A375 melanoma cell cytotoxicity, dose response, counter-screen for MITF inhibitor project, CellTiter-Glo luminescence, dry powder, set 2 (AID 624489); type: functional, cell-based; settings: A-375;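 further: actives are compounds lowering A375 viability meaning general cytotoxicity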
[16] = LGR2 antagonists, dose response, cell-based, HEK293, CRE-luciferase reporter, cherry pick, set 2 (AID 743343); type: functional;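 further: transfected cells were stimulated with diluted bursicon conditioned medium after compound addition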
[17] = HepG2 cell cytotoxicity, dose response, cytotoxicity control, plate reader, cherry-pick, antagonist series (AID 743416); type: functional, cell-based
[18] = HEK293 cell cytotoxicity, dose response, cytotoxicity control, plate reader, cherry-picked samples (AID 743446); type: functional, cell-based
[19] = MC4R antagonists, dose response, counter-screen for LGR2 antagonist project, cell-based, plate reader, cherry pick (AID 743444); type: functional;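 further: transfected HEK 293 cells stimulated with alpha-MSH peptide; potency of inhibitors of the alpha-MSH evoked signal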
[20] = A549 cell cytotoxicity, dose response, cytotoxicity control, plate reader, cherry-pick, antagonist series (AID 743412); type: functional, cell-based
[21] = growth suppression of PTEN-null colon cells, dose response, cell-based, HCT116 PTEN knockout (AID 1047); type: functional;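 further: HCT116 colon tumor cells with PTEN knocked out; cells exposed to compound for 60 hours before readout; potency for loss of cell viability measured by luminescence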
[22] = growth suppression of beta-catenin-knockout colon cells, dose response, cell-based, HCT116, human colon tumor (AID 1045); type: functional;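 further: HCT116 colon tumor cells with beta catenin knocked out; cells exposed to compound for 60 hours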
[23] = Luminescence-based cell-based high throughput dose response assay to identify activators of the DAF-12 from the parasite S. stercoralis (ssDAF-12).; type: functional
[24] = biological target: T1, Oxysterols receptor LXR-beta; test: LXR agonists, Gal4 luciferase reporter, dose response, counter-screen for ssDAF-12 agonist project, cell-based, luminescence, HEK293, S. stercoralis campaign (AID 720737); type: functional; settings: read-out: IC50 (the source's name)
[25] = Concentration-dependent survival of SW480 colon cancer line, luminescence detection with CellTiter-Glo, half-maximal inhibitory concentration (AID 1117338); type: functional
[26] = cytotoxicity toward HCT116 cells – cell-based, CellTiter-Glo luminescence, IC50, dose response (AID 1117332); type: functional; settings: HCT-116
[27] = cytotoxicity toward Colo320 cells – cell-based, CellTiter-Glo luminescence, IC50, dose response (AID 1117334); type: functional; settings: COLO 320
[28] = CellTiter-Glo luminescent dose response of DLD-1 viability loss (AID 1117352); type: functional

SMILES: CN(CCO)c1cc(N2CCC3(CC2)OCCO3)c2nonc2c1[N+](=O)[O-]
EC50 [1]: > 100 µM (active)

SMILES: N#C/C(=C/c1ccc(N2CCOCC2)o1)C(=O)N1CCOCC1
EC50 [1]: > 100 µM (active)

SMILES: CCOC(=O)c1sc(NC(=O)Cn2nnc3sc4c(c3c2=O)CCC(C(C)(C)C)C4)nc1C (stereo not given)
CC50 [2]: 23.7 µM (active) | IC50 [3]: > 25 µM (active)

EC50 [4]: > 67.5 µM (inactive) | IC50 [5]: 8.54 µM (active)
SMILES: CN(C)c1ccc(Nc2nc(-c3cccnc3)cs2)cc1

SMILES: Cc1ccccc1N=Nc1c(O)[nH]c2ccccc12
EC50 [6]: > 67.5 µM (inactive) | EC50 [7]: > 67.5 µM (inactive)

SMILES: Oc1ccc(Cl)cc1/C=N/c1ccc2c3c(cccc13)CC2
IC50 [8]: 9.38 µM (active) | IC50 [9]: > 50 µM (not active) | IC50 [10]: 12.9 µM (active)

IC50 [11]: 78.6 µM (not active) | IC50 [12]: > 50 µM (not active) | IC50 [13]: > 50 µM (not active)
SMILES: O=S(=O)(Nc1nccs1)c1cc(Cl)ccc1Cl

SMILES: CCN1CCN(C2=C(Nc3ccccc3)C(=O)c3ccccc3C2=O)CC1
AC50 [14]: 46.6 µM (active) | AC50 [15]: 25.5 µM (active)

SMILES: C[C@H]1CN([C@@H](C)CO)C(=O)Cc2cc(NS(=O)(=O)c3ccc(Cl)cc3)ccc2O[C@@H]1CN(C)Cc1ccc(Cl)c(Cl)c1
AC50 [16]: 20.4 µM (active) | AC50 [17]: 11.3 µM (active) | AC50 [18]: 19.6 µM (active) | AC50 [19]: 12.7 µM (active) | AC50 [20]: 10.2 µM (active)

SMILES: O=C(NC1=C(N2CCOCC2)C(=O)c2ccccc2C1=O)c1ccc(Br)cc1
AC50 [14]: > 70 µM (inactive) | AC50 [15]: 28.9 µM (active)

SMILES: Fc1cccc(Cl)c1/C=N/Nc1ccccn1
EC50 [6]: > 67.6 µM (inactive) | EC50 [7]: > 67.6 µM (inactive)

SMILES: CC/C(=N/Nc1ccccc1)c1cnnc(-c2ccccc2)n1
IC50 [11]: 6.12 µM (not active) | EC50 [21]: 60.2 µM (active) | IC50 [12]: > 50 µM (not active) | EC50 [22]: 70.6 µM (active)

SMILES: O=C(Nc1ccccc1)C(=O)c1c[nH]c2ccccc12
IC50 [23]: > 67.5 µM (inactive) | EC50 [24]: > 67.5 µM (inactive)

SMILES: c1cnc2cc3c(cc2n1)[C@@H]1CNC[C@H]3C1 [VARENICLINE]
IC50 [25]: > 6.67 µM (inactive) | IC50 [26]: > 20 µM (inactive) | IC50 [27]: > 20 µM (inactive) | IC50 [28]: > 6.67 µM (inactive)
